# Laboratory results taken from patent US9199976B2, “Haematopoietic-prostaglandin D2 synthase inhibitors” (The University of Queensland, priority 2010, dated 2015).
# How the values were obtained:
# [1] = tested on: LPS-inducible PGE2 production from BMM; assay: PGE2 production in LPS-activated BMM (EIA); format: cell-based; conditions: LPS-activated mouse BMM, 24 h
# Experimental: (§1) All bone marrow-derived macrophages (BMM) were obtained by culturing bone marrow cells from the femurs of 6 to 8 week old C57BL/6 male mice in RPMI 1640 medium (Invitrogen Life Technologies, Carlsbad, Calif., USA) supplemented with 10% Fetal calf serum (Invitrogen) 20 U/ml penicillin and 20 μg/ml streptomycin (Invitrogen), 2 mM L-glutamine (Glutamax-1, Invitrogen) in the presence of 10^4 U/ml (100 ng/mL) recombinant human CSF-1 (a gift from Chiron, Emeryville, Calif.) on bacteriological plastic plates for 7 days. The human megakaryocytic cell line MEG-01S was obtained from the American Type Culture Collection. MEG-01S were maintained in the same media as for BMM, supplemented with 1 mM Sodium Pyruvate (Invitrogen).
# (§2) BMM were seeded overnight at 2×10^5 cells/ml in 24 well plates before treatment with compound at either 10 μM or 0.1-100 μM for 24 h in the presence or absence of lipopolysaccharide (LPS) from Salmonella Minnesota (Sigma-Aldrich) at a final concentration of 10 ng/ml. […] Supernatants were collected and samples were analysed for PGD2 using Prostaglandin D2 Mox Express EIA kits, PGE2 using Prostaglandin E2 Express EIA kits, the prostacyclin derivative 6-keto PGF1α using the 6-keto Prostaglandin F1α EIA Kit and the Thromboxane A2 derivative TXB2 using the Thromboxane B2 Express EIA kit (Cayman Chemical) according to the manufacturer's instructions. […]
# [2] = tested on: PGD2 production in mouse primary bone marrow-derived macrophages (BMM); assay: PGD2 production in LPS-activated BMM (EIA); format: cell-based
# Experimental: as §1, with “(Invitrogen). […] The average PGD2 production from three independent experiments plus SEM is shown. * indicates p<0.05 versus LPS treatment alone. (Student's t test).” for “(Invitrogen).”
# [3] = tested on: LPS-inducible TXB2 (thromboxane A2 derivative) production from BMM; assay: TXB2 production in LPS-activated BMM (EIA); format: cell-based; conditions: LPS-activated mouse BMM, 24 h
# Experimental: as §1, §2
# [4] = Rat pharmacokinetics, plasma concentration after oral dosing; format: in vivo, Sprague Dawley rat; conditions: single oral 40 mg/kg; for Concentration (individual rat): rat plasma
# Experimental: Male adult Sprague Dawley rates (˜165 g) received a single oral bolus dose of 40 mg/kg of compound 3 in a 0.5% methylcellulose/0.1% Tween80 by oral gavage. Rats were sacrificed when collecting blood and spleen samples just prior to dosing and at 0.5 hours, 2 h, 8 h and 24 h (n=3 rats per time point), and the plasma concentration of compound 3 and the spleen PGD2 concentration was measured at each time point.
# Blood samples were removed and kept cold at approximately 4° C. immediately after collection to minimize degradation and centrifuged as soon as possible at approximately 4000×g for 10 min. The plasma was transferred to a clean, pre-labelled polypropylene tube and frozen. Samples were stored at −20° C. as soon as possible after collection to minimise degradation of the test item.
# Plasma concentrations of 3 were determined using a screening LC-ms/ms method developed using the following parameters:
# Samples were analysed alongside plasma standards. Concentration data were determined by back calculation from standard curve.
# BMM = BMM cell viability by MTT assay; format: cell-based, mouse; conditions: LPS 10 ng/ml, 24 h, 10-100 μM
# Experimental: as §1
# (§3) Known inhibitors 1 and 2, along with compound 3, were used to treat BMM at three doses (10, 30, 100 μM) in the presence of LPS for 24 h and cell viability was measured by MTT assay. BMM were seeded at 1×10^5 cells/well in 96 well plates and treated for 24 h with LPS (10 ng/ml) and compounds at 10, 30 and 100 μM. MEG-01S were PMA differentiated overnight before compounds were added for a further 24 h at 10, 30 and 100 μM. Cell viability was measured by MTT (Sigma-Aldrich) assay as described previously (Irvine, FASEB J, 2006).
# [5] = tested on: LPS-inducible 6-keto PGF1α (prostacyclin derivative) production from BMM; assay: 6-keto PGF1α production in LPS-activated BMM (EIA); format: cell-based; conditions: LPS-activated mouse BMM, 24 h
# Experimental: as §1, §2
# [6] = tested on: PGD2 production from MEG-01S human megakaryocytes; assay: A23187-inducible PGD2 production in PMA-differentiated MEG-01S (EIA); format: cell-based; conditions: 0-100 μM
# Experimental: as §1, §2
# MEG-01S cells = assay: MEG-01S cell viability by MTT assay; format: cell-based, human; conditions: 24 h, 0-100 μM
# Experimental: as §1, §3
# The effect of the compounds on MEG-01S cell viability was measured by MTT assay after 24 h treatment across the concentration range 0-100 μM of compounds (FIG. 3B). Data represent the average of 4 independent experiments plus SEM.
# H-PGDS = H-PGDS (Homo sapiens (Human), UniProt O60760); assay: H-PGDS catalyzed conjugation of GSH and CDNB, enzyme inhibition assay; format: biochemical; conditions: 50 μM compound; mean ± standard error of triplicate experiments; read-out: I[50], percent inhibition at 50 μM
# Experimental: H-PGDS was expressed and purified as described previously (Jowsey, 2001). Briefly, H-PGDS was expressed in Escherichia coli strain BL21 DE3 transformed with the pET17b HPGDS expression construct, grown overnight at 37° C. in 250 ml of Luria-Bertani medium supplemented with 100 μg/ml ampicillin. After 24 h, without induction, bacteria were harvested by centrifugation at 5000 g for 20 min at 4° C.; cell pellets were kept at −70° C. until required. Cells were resuspended in 25 ml of ice-cold phosphate buffered saline (PBS), pH 7.4, containing 1 mM DTT, 0.5% Triton X-100 and EDTA-free protease inhibitor tablets (F. Hoffmann-La Roche, Dee Why, NSW, Australia); and incubated with rotation for 30 mins at 4° C. Cells were then lysed by sonication at 90-100 W over 3×1 min intervals, while incubated on ice; the lysate clarified by centrifugation at 18000 g for 10 min at 4° C.
# The supernatant was then applied to a GSTPrep FF 16/10 column pre-equilibrated with PBS, pH 7.4, and 1 mM DTT, at 0.4 ml/minute using an AKTA explorer 100 (GE Healthcare, Rydalmere, NSW, Australia), then washed with 5 column volumes of the same buffer at 1 ml/min. Bound H-PGDS was eluted in 5 column volumes of 15 mM reduced glutathione in 50 mM Tris, pH 9.0, at 0.5 ml/min, and dialysed against 100 volumes of 5 mM TrisCl, pH 8.0. The protein was concentrated to 20 mg/ml, as determined by the method of Bradford (Bradford, 1976) using an Amicon Ultra-4 centrifugal filter device (Millipore, North Ryde, NSW, Australia) following manufacturers recommendations. Glycerol was added to a final concentration of 10% (v/v) prior to storage at −20° C.
# The H-PGDS catalyzed conjugation of GSH and 1-chloro-2,4-dinitrobenzene (CDNB) was used as the biochemical assay for enzyme inhibition. Reactions were performed in 96 well plate format, and product formation was followed at A340 nm over a 10 min interval at 25° C. using a POWERWAVE XS microplate scanning spectrophotometer (Bio-Tek Instruments, Winooski, Vt., USA). Reactions were performed in 0.1 M Tris HCl, pH 8.0 containing 2 mM MgCl2, 1 mM CDNB, 2 mM GSH, 2.5 ng/μ1 purified H-PGDS and 10% (v/v) ethanol in a 200 μl reaction volume. IC50 values were calculated from rates of conjugation activity determined at eight concentration points bracketing the IC50, where compound solubility allowed, and were corrected for background activity at the same solvent concentrations. All compounds were made up in 100% DMSO and diluted with 0.1 M Tris HCl, pH 8.0 with 2 mM MgCl2. I50 and IC50 values were determined at a final DMSO composition of no greater than 4% v/v for all compounds. Non-linear regression analysis and IC50 calculations were performed using GraphPad Prism version 4.0c.
# H-PGDS, sequence (O60760 whole entry): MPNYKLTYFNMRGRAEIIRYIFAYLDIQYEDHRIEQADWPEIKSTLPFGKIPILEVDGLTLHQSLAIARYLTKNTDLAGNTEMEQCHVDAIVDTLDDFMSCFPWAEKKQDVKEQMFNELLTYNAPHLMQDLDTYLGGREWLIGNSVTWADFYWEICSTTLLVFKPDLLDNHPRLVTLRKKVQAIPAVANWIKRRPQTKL
smiles,measurement,setting,value
"NC(=O)[C@H](Cc1ccccc1)NC(=O)c1ccc(-c2cccs2)nc1 (stereo in doubt) [Compound 3, N-(1-amino-1-oxo-3-phenylpropan-2-yl)-6-(thiophen-2-yl)-nicotinamide]",concentration above which PGE2 inhibition was observed,[1],above 10 μM
same,"differential effect in inhibition of PGD2 versus PGE2, 6-keto PGF1α or TXB2 (selectivity)",[2]; LPS-activated mouse BMM,striking selectivity
same,inhibition of PGD2 production,"[2]; LPS-activated mouse BMM, 0-100 μM, 24 h",inhibited PGD2 production in the sub-micromolar range dose-dependently
same,inhibition of PGD2 levels at 1 μM,"[2]; LPS-activated mouse BMM, 1 μM",significantly inhibiting
same,EC50 fold better than that estimated for compound 1,"[2]; LPS-activated mouse BMM, PGD2 production",~30 fold
same,concentration above which TXB2 inhibition was observed,[3],above 10 μM
same,Concentration (individual rat),[4]; 0.5 h,177 ng/mL
same,Concentration (individual rat),"[4]; 24 h, BLOQ = below the lower limit of quantitation",BLOQ^2
same,oral bioavailability,[4]; rat,orally bioavailable
same,effect on BMM cell viability,BMM,did not affect BMM viability
same,concentration above which 6-keto PGF1α inhibition was observed,[5],above 10 μM
same,inhibition of A23187-inducible PGD2 production,[6],dose-dependently
same,effect on MEG-01S cell viability,MEG-01S cells,little effect
c1ccc(C(OC2CCN(CCCc3nnn[nH]3)CC2)c2ccccc2)cc1 [Compound 1],effect on BMM cell viability,BMM,modest but significant effects
same,effect on MEG-01S cell viability,MEG-01S cells,little effect
c1ccc(-c2ncc(-c3cc[nH]n3)s2)cc1 [Compound 2],EC50,"[2]; Mus musculus, Macrophage, 24 h, read-out: EC50 for inhibition of PGD2 production",~0.16 µM
same,effect on BMM cell viability,BMM,modest but significant effects
same,effect on MEG-01S cell viability,MEG-01S cells,little effect
"O=C(c1ccc(-c2cccs2)nc1)N1CCC(N2C(=O)OCc3ccccc32)CC1 [Compound 13, 1-(1-(6-(thiophen-2-yl)nicotinoyl)piperidin-4-yl)-1H-benzo[d][1,3]oxazin-2(4H)-one]",inhibition at 50 µM,H-PGDS,87.9 ± 1.1%
NC(=O)[C@H](Cc1ccccc1)NC(=O)c1ccc(-c2ccc(C(=O)O)s2)nc1 [Compound 15],inhibition at 50 µM,H-PGDS,19.4 ± 1.4%
N#Cc1ccc(-c2ccc(C(=O)N[C@@H](Cc3ccccc3)C(N)=O)cn2)s1 [Compound 20],inhibition at 50 µM,H-PGDS,67.9 ± 1.6%
Cc1cc(-c2ccc(C(=O)N[C@@H](Cc3ccccc3)C(N)=O)cn2)sc1C#N [Compound 22],inhibition at 50 µM,H-PGDS,34.6 ± 2.1%
